Assay results from patent US20130165464A1, “HETEROARYLS AND USES THEREOF” (MILLENNIUM PHARMACEUTICALS, INC., priority 2011, published 2013).

Target: T1, VPS34 (Homo sapiens, UniProt Q8NEB9)
T1 construct: GST (N); host or cells: SF9 insect cells (baculovirus)
Test: Human VPS34 enzyme assay (Adapta TR-FRET)
Type: biochemical
Settings: for inhibition at 1.11 µM: 1 h, at a 1.11 μM concentration, read-out: VPS34 Percent Inhibition
Procedure: VPS34 (accession number GB:BCO33004) was cloned into pDEST20-Thombin as N-terminal GST tagged fusion proteins using the Gateway system (Invitrogen, catalog#11804-013). The sequences were verified before recombinant protein expression using the Baculovirus Expression System with Gateway® Technology.
For expression VPS34 was infected at 1MOI in SF9 cells and harvested 72 hours post infection.
For purification, VPS34 is purified by Glutathione Sepharose 4 Fast Flow (GE Healthcare #17-5132-03) followed by HiTrap Q (GE Healthcare #17-1153-01).
Human VPS34 Enzyme Assay Method
100 nL compounds in DMSO are added to wells of a 384 well microtitre plate (Greiner 780076). At room temperature: 5 ul VPS34 reaction buffer (Invitrogen Assay Buffer Q (diluted 1 in 5 with nanopure water) plus 2 mM DTT and 2 mM MnCl2) containing ATP (20 uM, Promega) and 200 uM PI-PS substrate (Invitrogen PV5122) is added followed immediately by 5 ul VPS34 reaction buffer (as above) containing VPS34 (5 nM, Millennium Protein Sciences Group) and the mixture is incubated with shaking at room temperature for 1 hour. Then 5 ul VPS34 stop-detect mix (as per Invitrogen Adapta Assay kit (PV5009) instructions (contains kinase quench buffer, TR-FRET buffer, Adapta Eu anti-ADP antibody and Alexa Fluor 647 ADP tracer)) is added to quench the reaction. The plates are then incubated for 30 minutes at room temperature with shaking and then read on a BMG PheraStar Plus reader.
For the assay methods described above, test compound percent inhibition, at various concentrations, is calculated relative to control (DMSO and EDTA) treated samples. Compound concentration versus percent inhibition curves are fitted to generate IC50 values. One skilled in the art will appreciate that the values generated either as percentage inhibition at a single concentration or IC50 values are subject to experimental variation.

T1 sequence (Q8NEB9 whole entry): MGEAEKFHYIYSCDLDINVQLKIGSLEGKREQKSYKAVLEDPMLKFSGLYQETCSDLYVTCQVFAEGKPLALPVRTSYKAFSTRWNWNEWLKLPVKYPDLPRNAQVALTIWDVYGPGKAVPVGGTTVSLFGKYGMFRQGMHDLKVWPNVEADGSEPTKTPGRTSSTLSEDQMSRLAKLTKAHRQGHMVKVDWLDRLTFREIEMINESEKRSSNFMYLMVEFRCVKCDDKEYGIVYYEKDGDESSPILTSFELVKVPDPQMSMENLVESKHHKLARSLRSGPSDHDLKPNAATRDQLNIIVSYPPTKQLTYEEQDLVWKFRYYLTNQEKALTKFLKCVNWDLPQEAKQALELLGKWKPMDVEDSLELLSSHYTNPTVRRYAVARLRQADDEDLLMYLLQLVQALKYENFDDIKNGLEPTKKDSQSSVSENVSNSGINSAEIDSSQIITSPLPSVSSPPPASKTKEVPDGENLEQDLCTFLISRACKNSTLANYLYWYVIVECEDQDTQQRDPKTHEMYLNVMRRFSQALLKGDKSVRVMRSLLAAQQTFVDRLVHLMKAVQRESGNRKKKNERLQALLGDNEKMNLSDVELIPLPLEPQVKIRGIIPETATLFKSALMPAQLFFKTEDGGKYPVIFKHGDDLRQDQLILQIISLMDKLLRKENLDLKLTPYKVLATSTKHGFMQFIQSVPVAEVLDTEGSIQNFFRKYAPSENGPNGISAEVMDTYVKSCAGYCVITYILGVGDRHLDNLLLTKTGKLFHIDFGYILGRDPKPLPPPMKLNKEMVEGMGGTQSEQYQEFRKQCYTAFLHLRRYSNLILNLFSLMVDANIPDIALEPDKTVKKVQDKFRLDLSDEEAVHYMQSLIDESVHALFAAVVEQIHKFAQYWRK

| IC50 [nM] | inhibition at 1.11 µM [%] | Compound |
| --- | --- | --- |
|  | > 99 | Cc1cnc(NC(=O)C2CC2)cc1-n1cc(-c2nc[nH]n2)c(-c2ccc(Cl)cc2Cl)n1 [I-67, N-{4-[3-(2,4-dichlorophenyl)-4-(1H-1,2,4-triazol-3-yl)-1H-pyrazol-1-yl]-5-methylpyridin-2-yl}cyclopropanecarboxamide] |
| 150 to 1000 | 54 | CC(=O)Nc1cc(-n2cc(-c3ncn[nH]3)c(-c3ccnc(Cl)c3)n2)c(C)cn1 [I-106, N-{4-[3-(2-chloropyridin-4-yl)-4-(1H-1,2,4-triazol-5-yl)-1H-pyrazol-1-yl]-5-methylpyridin-2-yl}acetamide] |
|  | > 99 | CCOc1ccc(-c2nn(-c3cc(NC(C)=O)ncc3C)cc2-c2nc[nH]n2)c(Cl)c1 [I-68, N-{4-[3-(2-chloro-4-ethoxyphenyl)-4-(1H-1,2,4-triazol-3-yl)-1H-pyrazol-1-yl]-5-methylpyridin-2-yl}acetamide] |
|  | > 99 | COC(=O)Nc1cc(-n2cc(-c3nc[nH]n3)c(-c3cc(CN4CCCC4)ccc3Cl)n2)c(C)cn1 [I-61, methyl (4-{3-[2-chloro-5-(pyrrolidin-1-ylmethyl)phenyl]-4-(1H-1,2,4-triazol-3-yl)-1H-pyrazol-1-yl}-5-methylpyridin-2-yl)carbamate] |
|  | > 99 | Cc1cnc(NC(=O)OCCF)cc1-n1cc(C(N)=O)c(-c2ccccc2Cl)c1 [I-83, 2-fluoroethyl {4-[3-carbamoyl-4-(2-chlorophenyl)-1H-pyrrol-1-yl]-5-methylpyridin-2-yl}carbamate] |
|  | > 99 | Cc1cnc(NC(=O)OC2CCCCC2)cc1-n1cc(-c2nc[nH]n2)c(-c2ccccc2Cl)c1 [I-73, cyclohexyl {4-[3-(2-chlorophenyl)-4-(1H-1,2,4-triazol-3-yl)-1H-pyrrol-1-yl]-5-methylpyridin-2-yl}carbamate] |
| < 50 | > 99 | COC(=O)Nc1cc(-n2cc(-c3ncc[nH]3)c(-c3ccccc3Cl)n2)c(C)cn1 [I-64, methyl {4-[3-(2-chlorophenyl)-4-(1H-imidazol-2-yl)-1H-pyrazol-1-yl]-5-methylpyridin-2-yl}carbamate] |
| < 50 | > 99 | Cc1cnc(NC(=O)C2CC2)cc1-n1cc(-c2ncc[nH]2)c(-c2ccccc2Cl)n1 [I-60, N-{4-[3-(2-chlorophenyl)-4-(1H-imidazol-2-yl)-1H-pyrazol-1-yl]-5-methylpyridin-2-yl}cyclopropanecarboxamide] |
|  | 79 | CC(=O)Nc1cc(-n2cc(C(N)=O)c(-c3cc(CN4CCCC4)ccc3Cl)c2)c(C)cn1 [I-77, 1-(2-acetamido-5-methylpyridin-4-yl)-4-[2-chloro-5-(pyrrolidin-1-ylmethyl)phenyl]-1H-pyrrole-3-carboxamide] |
| 150 to 1000 | 71 | Cc1cnc(NC(=O)OC2CCCCC2)cc1-n1cc(C(N)=O)c(-c2ccccc2Cl)c1 [I-72, cyclohexyl {4-[3-carbamoyl-4-(2-chlorophenyl)-1H-pyrrol-1-yl]-5-methylpyridin-2-yl}carbamate] |

Further lines, the compound ahead of its results:

| Compound | IC50 [nM] | inhibition at 1.11 µM [%] |
| --- | --- | --- |
| CC(=O)Nc1cc(-n2cc(-c3nc[nH]n3)c(-c3ccccc3Cl)n2)c(C)cn1 [I-5, N-{4-[3-(2-chlorophenyl)-4-(1H-1,2,4-triazol-3-yl)-1H-pyrazol-1-yl]-5-methylpyridin-2-yl}acetamide] | < 50 | > 99 |
| CC(=O)Nc1cc(-n2nc(-c3ccccc3Cl)c(-c3nc[nH]n3)c2Br)c(Br)cn1 [I-4, N-{5-bromo-4-[5-bromo-3-(2-chlorophenyl)-4-(1H-1,2,4-triazol-3-yl)-1H-pyrazol-1-yl]pyridin-2-yl}acetamide] | 1000 to 5000 | 18 |
| O=C(Nc1cc(-n2cc(-c3nc[nH]n3)c(-c3ccccc3Cl)n2)c(F)cn1)C1CC1 [I-56, N-{4-[3-(2-chlorophenyl)-4-(1H-1,2,4-triazol-3-yl)-1H-pyrazol-1-yl]-5-fluoropyridin-2-yl}cyclopropanecarboxamide] | < 50 | > 99 |
| Cc1cnc(NC(=O)C(C)C)cc1-n1cc(C(N)=O)c(-c2ccccc2Cl)c1 [I-33, 4-(2-chlorophenyl)-1-[2-(isobutyrylamino)-5-methylpyridin-4-yl]-1H-pyrrole-3-carboxamide] | 1000 to 5000 | 42 |
| Cc1cnc(NC(=O)C2CC2)cc1-n1cc(C(N)=O)c(-c2ccccc2Cl)c1 [I-40, 4-(2-chlorophenyl)-1-{2-[(cyclopropylcarbonyl)amino]-5-methylpyridin-4-yl}-1H-pyrrole-3-carboxamide] | < 50 | > 99 |
| CC(=O)Nc1cc(-n2cc(-c3nnc[nH]3)c(-c3ccc(Cl)cc3Cl)n2)c(C)cn1 [I-39, N-{4-[3-(2,4-dichlorophenyl)-4-(4H-1,2,4-triazol-3-yl)-1H-pyrazol-1-yl]-5-methylpyridin-2-yl}acetamide] | < 50 | > 99 |
| CCN(CC)Cc1ccc(Cl)c(-c2nn(-c3cc(NC(C)=O)ncc3C)cc2-c2nc[nH]n2)c1 [I-58, N-{4-[3-{2-chloro-5-[(diethylamino)methyl]phenyl}-4-(1H-1,2,4-triazol-3-yl)-1H-pyrazol-1-yl]-5-methylpyridin-2-yl}acetamide] |  | > 99 |
| CC(=O)Nc1cc(-n2cc(-c3ccn[nH]3)c(-c3ccccc3Cl)n2)ccn1 [I-25, N-{4-[3′-(2-chlorophenyl)-1H,1′H-3,4′-bipyrazol-1′-yl]pyridin-2-yl}acetamide] | < 50 | > 99 |
| CCC(=O)Nc1cc(-n2cc(C(N)=O)c(-c3ccccc3Cl)c2)c(C)cn1 [I-28, 4-(2-chlorophenyl)-1-[5-methyl-2-(propionylamino)pyridin-4-yl]-1H-pyrrole-3-carboxamide] | < 50 | > 99 |
| CCC(=O)Nc1cc(-n2cc(-c3nc[nH]n3)c(-c3ccccc3Cl)c2)c(C)cn1 [I-50, N-{4-[3-(2-chlorophenyl)-4-(1H-1,2,4-triazol-3-yl)-1H-pyrrol-1-yl]-5-methylpyridin-2-yl}propanamide] | < 50 | > 99 |
| CC(=O)Nc1cc(-n2cc(C(N)=O)c(-c3ccccc3Cl)n2)ccn1 [I-8, 1-(2-acetamidopyridin-4-yl)-3-(2-chlorophenyl)-1H-pyrazole-4-carboxamide] |  | > 99 |
| CC(=O)Nc1cc(-n2cc(-c3nc[nH]n3)c(-c3cc(CN(C)C)ccc3Cl)n2)c(C)cn1 [I-42, N-{4-[3-{2-chloro-5-[(dimethylamino)methyl]phenyl}-4-(1H-1,2,4-triazol-3-yl)-1H-pyrazol-1-yl]-5-methylpyridin-2-yl}acetamide] | < 50 | > 99 |
| CC(=O)Nc1cc(-n2cc(C(N)=O)c(-c3ccccc3Cl)c2)c(C)cn1 [I-41, 1-(2-acetamido-5-methylpyridin-4-yl)-4-(2-chlorophenyl)-1H-pyrrole-3-carboxamide] |  | 78 |
| CC(=O)Nc1cc(-n2cc(C(N)=O)c(-c3ccccc3Cl)n2)c(Cl)cn1 [I-9, 1-(2-acetamido-5-chloropyridin-4-yl)-3-(2-chlorophenyl)-1H-pyrazole-4-carboxamide] | 150 to 1000 | > 99 |
| NC(=O)c1cn(-c2ccnc3[nH]ccc23)nc1-c1ccccc1Cl [I-7, 3-(2-chlorophenyl)-1-(1H-pyrrolo[2,3-b]pyridin-4-yl)-1H-pyrazole-4-carboxamide] | 150 to 1000 | 88 |
